The results in this text go back to patent publication US10455835B2, “Fungicidal compositions for controlling leaf spots in sugar beets” (Dow AgroSciences LLC, priority 2012, dated 2019).

In the experiment the test system is Cercospora beticola (CERCBE). In words: Activity vs. sugar beet leaf spot on inoculated sugar beet plants (disease severity). In kind it is in vivo. As to conditions: sugar beet 'HH88', factorial analysis across all rates and replicates. Here is the method:
Evaluation of Protectant Activity of Fungicide Mixtures vs. sugar beet leaf spot caused by Cercospora beticola (CERCBE). Sugar beet plants (variety ‘HH88’) were grown in soil-less Metro mix and trimmed regularly to maintain an uniform plant size prior to test. To prepare inoculum, dried diseased beet leaves were placed in a moist chamber overnight to promote sporulation. Spores were rinsed off leaves with distilled water, filtered through cheesecloth to remove plant debris, then adjusted to 4×10^4 spores/ml. Tween 20 was added at 3 drops per 100 ml. Sugar beet seedlings were inoculated 3 days prior to or 4 to 5 days after fungicide treatments. Inoculated plants were kept in a dew chamber at 22° C. for 48 hr then incubated in a greenhouse set at 24° C. under a clear plastic hood until disease symptoms were fully expressed. Disease severity was assessed on both treated and untreated plants.
The following fungicides were used for an efficacy example:
The efficacy of various formulations is shown in the table below wherein the values are percent disease severity. Results of the factorial analysis across all rates and replicates.

In the case of `CC1COC(Cn2cncn2)(c2ccc(Oc3ccc(Cl)cc3)cc2Cl)O1` (centres unmarked) [difenconazole, 1H-1,2,4-Triazole, 1-((2-(2-chloro-4-(4-chlorophenoxy)phenyl)-4-methyl-1,3-dioxolan-2-yl)methyl)-], the percent disease severity reads like this: (Ex. 1, 3DC (inoculated 3 days prior to fungicide treatment), untreated disease severity 23.0) 1.2 b percent; (Ex. 2, 5DP (inoculated 5 days after fungicide treatment), untreated disease severity 31.0) 2.2 b percent; (Ex. 3, 3DC (inoculated 3 days prior to fungicide treatment), untreated disease severity 48.0) 0.6 c percent; (Ex. 4, 4DP (inoculated 4 days after fungicide treatment), untreated disease severity 35.0) 2.5 b percent; (Ex. 5, 3DC (inoculated 3 days prior to fungicide treatment), untreated disease severity 26.0) 0.4 c percent.
